Read-outs that look alike come from different tables or passages of the source. Bridge positions count the residues as written; N and C are the ends. Square brackets hold non-standard residues; d marks the D form. Peptide text beside a SMILES is read from it. * marks the point of attachment. Ala(2-furyl) = N[C@@H](Cc1ccco1)C(=O)O; Orn(iPr) = CC(C)NCCC[C@H](N)C(=O)O; 2Pal = N[C@@H](Cc1ccccn1)C(=O)O; 4Pal = N[C@@H](Cc1ccncc1)C(=O)O; 2Thi = N[C@@H](Cc1cccs1)C(=O)O; 3Thi = N[C@@H](Cc1ccsc1)C(=O)O; Aad = N[C@@H](CCCC(=O)O)C(=O)O; Orn = NCCC[C@H](N)C(=O)O; Dab = NCC[C@H](N)C(=O)O; NHCH2CH2OH = OCCN*; NHiBu = CC(C)CN*; NHOH = ON*
Target: T1, human oxytocin (hOT) receptor (Homo sapiens, UniProt P30559)
T1 construct: expressed in transfected cells
T1 sequence (P30559 1-389): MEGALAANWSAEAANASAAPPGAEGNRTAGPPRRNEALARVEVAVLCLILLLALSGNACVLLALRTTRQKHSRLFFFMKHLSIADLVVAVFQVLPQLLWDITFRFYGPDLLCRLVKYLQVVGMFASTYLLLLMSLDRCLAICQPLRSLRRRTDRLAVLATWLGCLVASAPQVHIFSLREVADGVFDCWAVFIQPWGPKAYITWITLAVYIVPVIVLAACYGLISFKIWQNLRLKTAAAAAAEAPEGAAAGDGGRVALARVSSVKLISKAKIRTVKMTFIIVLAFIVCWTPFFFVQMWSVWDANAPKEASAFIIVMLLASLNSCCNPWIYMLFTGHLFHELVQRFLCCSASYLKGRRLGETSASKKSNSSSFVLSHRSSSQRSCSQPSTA
Test: luciferase-based transcriptional reporter assay expressing the human oxytocin (hOT) receptor, for selectivity
Format: cell-based
Method: Agonist activity of compounds on the hV1a receptor was determined in a transcriptional reporter assay by transiently transfecting a hV1a receptor expression DNA into HEK-293 cells in concert with a reporter DNA containing intracellular calcium responsive promoter elements regulating expression of firefly luciferase. See Boss, V., Talpade, D. J., Murphy, T. J. J. Biol. Chem. 1996, May 3; 271(18), 10429-10432 for further guidance on this assay. […] To determine selectivity, compounds were tested in luciferase-based transcriptional reporter assays expressing the human oxytocin (hOT) receptor. Assays for other receptors (hV2, hV1b, rat V1a and rat V2) were also conducted.
The EC50 value given is the geometric mean expressed in nanomol/L (nM). Selectivity values are given as EC50 ratios.

[1] = agonist efficacy at the hOT receptor compared to AVP, ratio not determined

`CC[C@H](C)[C@@H]1NC(=O)[C@H](Cc2ccco2)NC(=O)[C@@H](N)CSSC[C@@H](C(=O)N2CCC[C@H]2C(=O)N[C@@H](CCCNC(C)C)C(=O)NCC(N)=O)NC(=O)[C@H](CC(N)=O)NC(=O)[C@H](CC(N)=O)NC1=O` [Compound 42] (H-C[Ala(2-furyl)]INNCP[Orn(iPr)]G-NH2; disulfide 1-6) was tested, and the “selectivity hOT/hV1a (class symbol)” value was “+ (key: +: selective hV1a receptor agonist; EC50 hOT/hV1a ratio not determined due to very low agonist efficacy (<30% compared to AVP) at the hOT receptor)”.
For `CCNC(=O)CC[C@@H]1NC(=O)[C@H]([C@@H](C)CC)NC(=O)[C@H](Cc2ccccc2)NC(=O)[C@@H](N)CSSC[C@@H](C(=O)N2CCC[C@H]2C(=O)N[C@@H](CCCN)C(=O)NCC(N)=O)NC(=O)[C@H](CC(N)=O)NC1=O` [Compound 20] (H-CFIE(NHEt)NCP[Orn]G-NH2; disulfide 1-6; N-terminus and C-terminus assumed), the “selectivity hOT/hV1a (class symbol)” value [1] was “+ (selective hV1a receptor agonist; EC50 hOT/hV1a ratio not determined due to very low agonist efficacy (<30% compared to AVP) at the hOT receptor)”.
`CC[C@H](C)[C@@H]1NC(=O)[C@H](Cc2ccccc2)NC(=O)[C@@H](N)CSSC[C@@H](C(=O)N2CCC[C@H]2C(=O)N[C@@H](CCCN)C(=O)NCC(N)=O)NC(=O)[C@H](CC(N)=O)NC(=O)[C@H](CCC(=O)NC)NC1=O` [Compound 19] (H-CFIE(NHMe)NCP[Orn]G-NH2; disulfide 1-6; N-terminus and C-terminus assumed) was tested, and the “selectivity hOT/hV1a (class symbol)” value [1] was “+ (selective hV1a receptor agonist; EC50 hOT/hV1a ratio not determined due to very low agonist efficacy (<30% compared to AVP) at the hOT receptor)”.
For `CC[C@H](C)[C@@H]1NC(=O)[C@H](Cc2ccncc2)NC(=O)[C@@H](N)CSSC[C@@H](C(=O)N2CCC[C@H]2C(=O)N[C@@H](CCN)C(=O)NCC(N)=O)NC(=O)[C@H](CC(N)=O)NC(=O)[C@H](CCC(N)=O)NC1=O` [Compound 12] (H-C[4Pal]IQNCP[Dab]G-NH2; disulfide 1-6), the “selectivity hOT/hV1a (class symbol)” value was “+ (key: +: selective hV1a receptor agonist; EC50 hOT/hV1a ratio not determined due to very low agonist efficacy (<30% compared to AVP) at the hOT receptor)”.
For `CC[C@H](C)[C@@H]1NC(=O)[C@H](Cc2ccccc2)NC(=O)[C@@H](N)CSSC[C@@H](C(=O)N2CCC[C@H]2C(=O)N[C@@H](CCCN)C(=O)NCC(N)=O)NC(=O)[C@H](CC(N)=O)NC(=O)[C@H](CC(=O)NCCO)NC1=O` [Compound 23] (H-CFID(NHCH2CH2OH)NCP[Orn]G-NH2; disulfide 1-6; N-terminus and C-terminus assumed), the “selectivity hOT/hV1a (class symbol)” value [1] was “+ (selective hV1a receptor agonist; EC50 hOT/hV1a ratio not determined due to very low agonist efficacy (<30% compared to AVP) at the hOT receptor)”.
`CC[C@H](C)[C@@H]1NC(=O)[C@H](Cc2ccco2)NC(=O)[C@@H](N)CSSC[C@@H](C(=O)N2CCC[C@H]2C(=O)N[C@@H](CCCN)C(=O)NCC(N)=O)NC(=O)[C@H](CC(N)=O)NC(=O)[C@H](CC(N)=O)NC1=O` [Compound 38] (H-C[Ala(2-furyl)]INNCP[Orn]G-NH2; disulfide 1-6; N-terminus and C-terminus assumed) was tested, and the “selectivity hOT/hV1a (class symbol)” value [1] was “+ (selective hV1a receptor agonist; EC50 hOT/hV1a ratio not determined due to very low agonist efficacy (<30% compared to AVP) at the hOT receptor)”.
In the case of `CC[C@H](C)[C@@H]1NC(=O)[C@H](Cc2ccccn2)NC(=O)[C@@H](N)CSSC[C@@H](C(=O)N2CCC[C@H]2C(=O)N[C@@H](CCN)C(=O)NCC(N)=O)NC(=O)[C@H](CC(N)=O)NC(=O)[C@H](CCC(N)=O)NC1=O` [Compound 17] (H-C[2Pal]IQNCP[Dab]G-NH2; disulfide 1-6), the “selectivity hOT/hV1a (class symbol)” value is reported as “+ (key: +: selective hV1a receptor agonist; EC50 hOT/hV1a ratio not determined due to very low agonist efficacy (<30% compared to AVP) at the hOT receptor)”.
With `CC[C@H](C)[C@@H]1NC(=O)[C@H](Cc2ccccc2)NC(=O)[C@@H](N)CSSC[C@@H](C(=O)N2CCC[C@H]2C(=O)N[C@@H](CCN)C(=O)NCC(N)=O)NC(=O)[C@H](CC(N)=O)NC(=O)[C@H](CC(=O)NC)NC1=O` [Compound 31] (H-CFID(NHMe)NCP[Dab]G-NH2; disulfide 1-6; N-terminus and C-terminus assumed) the “selectivity hOT/hV1a (class symbol)” value [1] was “+ (selective hV1a receptor agonist; EC50 hOT/hV1a ratio not determined due to very low agonist efficacy (<30% compared to AVP) at the hOT receptor)”.
For `CC[C@H](C)[C@@H]1NC(=O)[C@H](Cc2ccsc2)NC(=O)[C@@H](N)CSSC[C@@H](C(=O)N2CCC[C@H]2C(=O)N[C@@H](CCCN)C(=O)NCC(N)=O)NC(=O)[C@H](CC(N)=O)NC(=O)[C@H](CC(N)=O)NC1=O` [Compound 35] (H-C[3Thi]INNCP[Orn]G-NH2; disulfide 1-6; N-terminus and C-terminus assumed), the “selectivity hOT/hV1a (class symbol)” value [1] was “+ (selective hV1a receptor agonist; EC50 hOT/hV1a ratio not determined due to very low agonist efficacy (<30% compared to AVP) at the hOT receptor)”.
For `CC[C@H](C)[C@@H]1NC(=O)[C@H](Cc2ccccc2)NC(=O)[C@@H](N)CSSC[C@@H](C(=O)N2CCC[C@H]2C(=O)N[C@@H](CCCN)C(=O)NCC(N)=O)NC(=O)[C@H](CC(N)=O)NC(=O)[C@H](CC(=O)NO)NC1=O` [Compound 24] (H-CFID(NHOH)NCP[Orn]G-NH2; disulfide 1-6; N-terminus and C-terminus assumed), the “selectivity hOT/hV1a (class symbol)” value [1] was “+ (selective hV1a receptor agonist; EC50 hOT/hV1a ratio not determined due to very low agonist efficacy (<30% compared to AVP) at the hOT receptor)”.
In the case of `CC[C@H](C)[C@@H]1NC(=O)[C@H](Cc2ccccc2)NC(=O)[C@@H](N)CSSC[C@@H](C(=O)N2CCC[C@H]2C(=O)N[C@@H](CCN)C(=O)NCC(N)=O)NC(=O)[C@H](CC(N)=O)NC(=O)[C@H](CCCC(N)=O)NC1=O` [Compound 11] (H-CFI[Aad](NH2)NCP[Dab]G-NH2; disulfide 1-6), the “selectivity hOT/hV1a (class symbol)” value is reported as “+ (key: +: selective hV1a receptor agonist; EC50 hOT/hV1a ratio not determined due to very low agonist efficacy (<30% compared to AVP) at the hOT receptor)”.
In the case of `CC[C@H](C)[C@@H]1NC(=O)[C@H](Cc2ccccc2)NC(=O)[C@@H](N)CSSC[C@@H](C(=O)N2CCC[C@H]2C(=O)N[C@@H](CCCN)C(=O)NCC(N)=O)NC(=O)[C@H](CC(N)=O)NC(=O)[C@H](CCC(=O)NCC(C)C)NC1=O` [Compound 21] (H-CFIE(NHiBu)NCP[Orn]G-NH2; disulfide 1-6; N-terminus and C-terminus assumed), the “selectivity hOT/hV1a (class symbol)” value [1] is reported as “+ (selective hV1a receptor agonist; EC50 hOT/hV1a ratio not determined due to very low agonist efficacy (<30% compared to AVP) at the hOT receptor)”.
`CC[C@H](C)[C@@H]1NC(=O)[C@H](Cc2ccccc2)NC(=O)[C@@H](N)CSSC[C@@H](C(=O)N2CCC[C@H]2C(=O)N[C@@H](CCCN)C(=O)NCC(N)=O)NC(=O)[C@H](CC(N)=O)NC(=O)[C@H](CCCC(N)=O)NC1=O` [Compound 9] (H-CFI[Aad](NH2)NCP[Orn]G-NH2; disulfide 1-6) was tested, and the “selectivity hOT/hV1a (class symbol)” value was “+ (key: +: selective hV1a receptor agonist; EC50 hOT/hV1a ratio not determined due to very low agonist efficacy (<30% compared to AVP) at the hOT receptor)”.
For `CC[C@H](C)[C@@H]1NC(=O)[C@H](Cc2cccs2)NC(=O)[C@@H](N)CSSC[C@@H](C(=O)N2CCC[C@H]2C(=O)N[C@@H](CCCN)C(=O)NCC(N)=O)NC(=O)[C@H](CC(N)=O)NC(=O)[C@H](CC(N)=O)NC1=O` [Compound 33] (H-C[2Thi]INNCP[Orn]G-NH2; disulfide 1-6; N-terminus and C-terminus assumed), the “selectivity hOT/hV1a (class symbol)” value [1] was “+ (selective hV1a receptor agonist; EC50 hOT/hV1a ratio not determined due to very low agonist efficacy (<30% compared to AVP) at the hOT receptor)”.

Source: US8778881B2 (priority 2004, dated 2014)
